From patent US10934303B2, “Aryl ethene derivative and pharmaceutical composition containing same as active ingredient” (priority 2016, dated 2021)

Legend:
ERRγ = format: cell-based; details: for Functional Assay at 10 μM (% of control), Cpds: 24 hours, AD293; for Functional Assay, Cpds/Ref 5182: activity relative to reference compound GSK5182, 10 μM
Procedure: AD293 was cultured in a 24-well plate for 24 hours, using a DMEM High glucose culture medium (Hyclone, USA) to which 0.5% FBS was added at a concentration of 9×10^4/well. The culture medium was replaced with a DMEM High glucose culture medium to which 10% FBS was added, treatment was performed with a mixture of a TransIT-LT1 transfection reagent (Mirus, USA) and pCMX-Gal4-ERRγ, pFR-luciferase reporter plasmid, pCMV-β-gal, and culturing was performed for 24 hours. Thereafter, a luciferase activity assay and a β-gal assay were performed, respectively, with a lysate obtained after treatment with the arylethene derivative of the present invention for 24 hours. All results were derived from three or more independent repetitive experiments.

[1] = 1 μM, 30 minutes, 37° C., NADPH
Procedure: 2) Microsomal Stability Evaluation
(§2) Four liver microsomes (Human, Dog, Rat, Mouse 0.5 mg/ml) with a 0.1 M phosphate buffer solution (pH 7.4), and the arylethene derivative of the present invention were added to a concentration of 1 μM, culturing was performed at 37° C. for 5 minutes in advance, a NADPH regeneration system solution was added thereto, and culturing was performed at 37° C. for 30 minutes. Thereafter, in order to complete the reaction, an acetonitrile solution containing an internal standard material (chlorpropamide) was added thereto, centrifugation (14,000 rpm, 4° C.) was performed for 5 minutes, and a supernatant was injected into a LC-MS/MS system to analyze the substrate drug, thereby evaluating metabolism stability to the arylethene derivative of the present invention.

[2] = 1 μM, 30 minutes, 37° C., NADPH; remark: listed apart in the source
Procedure: 2) Microsomal Stability Evaluation
as §2

CYP2D6 = CYP2D6 (Homo sapiens (Human), UniProt P10635); test: Cytochrome P450 activity inhibition, CYP2D6; format: in vitro ADME; details: 10 μM, human liver microsomes, Dextromethorphan substrate
From the text: (§1) 1) Cytochrome P450 (CYP450) Activity Inhibition Evaluation

in vitro = in vitro ADME; set-up: Papp at 5 h: dose or concentration left out as unconfirmed; details: PBS pH 7.4, 25° C.; for Papp at 5 h: PAMPA, read-out: Permeability Pampa; for Permeability Pampa: 5 hours
Procedure: 3) Parallel Artificial Membrane Permeability Assay (PAMPA) Evaluation
PAMPA is a method which has been developed for testing cell membrane permeability of a material in a test tube, and has been performed using a lipid tri-layer PVDF membrane available from Corning Gentest (NY, US), the used reagents were all purchased from Sigma (MO, US). First, a test material is diluted in PBS (pH 7.4) to a final concentration of 10 mM, 300 mL of the solution is added to the bottom well of a 96-transwell equipped with a PVDF membrane, and 200 mL of PBS is added to the upper well. Then, a plate is reacted at 25° C. for 5 hours, 20 mL of the solution in each well is transferred to a new container, and 80 mL of acetonitrile containing an internal standard material (4 mM chloropropamide) is added thereto. A concentration of the material in the solution is analyzed using LC-MS/MS (ThermoFisher Scientific, MO, US), and the transmittance of the material is calculated according to the equation reported in the reference document.

CYP2C9 = CYP2C9 (Homo sapiens (Human), UniProt P11712); test: Cytochrome P450 activity inhibition, CYP2C9; format: in vitro ADME; details: 10 μM, human liver microsomes, Diclofenac substrate
From the text: as §1

CYP1A2 = CYP1A2 (Homo sapiens (Human), UniProt P05177); test: Cytochrome P450 activity inhibition, CYP1A2; format: in vitro ADME; details: 10 μM, human liver microsomes, Phenacetin substrate
From the text: as §1

CYP2C19 = CYP2C19 (Homo sapiens (Human), UniProt P33261); test: Cytochrome P450 activity inhibition, CYP2C19; format: in vitro ADME; details: 10 μM, human liver microsomes, S-mephenytoin substrate
From the text: as §1

CYP3A4 = CYP3A4 (Homo sapiens (Human), UniProt P08684); test: Cytochrome P450 activity inhibition, CYP3A4; format: in vitro ADME; details: 10 μM, human liver microsomes, Midazolam substrate
From the text: as §1

in vivo = format: in vivo; details: rat, IV, 1 mg/kg

Sequence of CYP1A2 (P05177 whole entry): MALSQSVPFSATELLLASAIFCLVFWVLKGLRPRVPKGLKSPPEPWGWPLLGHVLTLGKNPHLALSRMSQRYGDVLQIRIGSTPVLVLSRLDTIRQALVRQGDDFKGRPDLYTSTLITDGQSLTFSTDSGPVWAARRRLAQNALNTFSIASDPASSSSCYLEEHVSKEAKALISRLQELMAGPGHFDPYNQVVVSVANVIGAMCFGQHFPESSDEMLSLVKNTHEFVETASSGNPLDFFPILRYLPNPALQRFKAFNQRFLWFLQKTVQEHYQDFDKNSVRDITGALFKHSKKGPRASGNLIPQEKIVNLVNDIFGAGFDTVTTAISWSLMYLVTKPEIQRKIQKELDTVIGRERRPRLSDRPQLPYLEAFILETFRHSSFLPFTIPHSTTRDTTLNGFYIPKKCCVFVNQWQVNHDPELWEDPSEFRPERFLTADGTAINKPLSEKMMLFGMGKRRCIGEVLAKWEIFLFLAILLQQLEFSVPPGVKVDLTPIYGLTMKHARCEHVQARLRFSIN
Sequence of CYP3A4 (P08684 whole entry): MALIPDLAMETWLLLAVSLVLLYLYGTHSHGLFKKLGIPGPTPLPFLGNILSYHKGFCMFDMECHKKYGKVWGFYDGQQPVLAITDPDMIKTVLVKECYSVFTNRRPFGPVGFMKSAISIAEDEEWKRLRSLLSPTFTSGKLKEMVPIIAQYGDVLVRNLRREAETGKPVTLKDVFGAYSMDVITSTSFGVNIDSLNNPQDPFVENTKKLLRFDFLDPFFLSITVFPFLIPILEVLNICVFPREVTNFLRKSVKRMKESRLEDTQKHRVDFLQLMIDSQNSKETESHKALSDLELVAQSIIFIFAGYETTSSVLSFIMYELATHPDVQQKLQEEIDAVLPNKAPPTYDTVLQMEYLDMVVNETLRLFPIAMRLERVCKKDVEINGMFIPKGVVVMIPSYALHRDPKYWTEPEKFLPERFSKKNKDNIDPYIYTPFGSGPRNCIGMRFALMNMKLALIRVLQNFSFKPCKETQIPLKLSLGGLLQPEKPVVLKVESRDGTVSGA
Sequence of CYP2D6 (P10635 whole entry): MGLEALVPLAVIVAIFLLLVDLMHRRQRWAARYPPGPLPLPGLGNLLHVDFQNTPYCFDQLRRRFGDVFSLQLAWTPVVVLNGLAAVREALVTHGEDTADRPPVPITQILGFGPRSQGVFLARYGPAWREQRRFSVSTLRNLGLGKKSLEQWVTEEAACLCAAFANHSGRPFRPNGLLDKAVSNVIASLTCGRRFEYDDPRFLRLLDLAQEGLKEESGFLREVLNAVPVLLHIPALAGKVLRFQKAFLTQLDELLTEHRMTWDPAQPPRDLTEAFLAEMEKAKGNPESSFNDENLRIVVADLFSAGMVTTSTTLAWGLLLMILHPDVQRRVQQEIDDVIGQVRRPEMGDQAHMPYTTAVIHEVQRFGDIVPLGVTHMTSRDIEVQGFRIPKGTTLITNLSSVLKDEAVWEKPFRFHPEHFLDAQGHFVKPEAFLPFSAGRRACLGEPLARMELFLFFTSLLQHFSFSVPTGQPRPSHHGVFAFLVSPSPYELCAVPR
Sequence of CYP2C9 (P11712 whole entry): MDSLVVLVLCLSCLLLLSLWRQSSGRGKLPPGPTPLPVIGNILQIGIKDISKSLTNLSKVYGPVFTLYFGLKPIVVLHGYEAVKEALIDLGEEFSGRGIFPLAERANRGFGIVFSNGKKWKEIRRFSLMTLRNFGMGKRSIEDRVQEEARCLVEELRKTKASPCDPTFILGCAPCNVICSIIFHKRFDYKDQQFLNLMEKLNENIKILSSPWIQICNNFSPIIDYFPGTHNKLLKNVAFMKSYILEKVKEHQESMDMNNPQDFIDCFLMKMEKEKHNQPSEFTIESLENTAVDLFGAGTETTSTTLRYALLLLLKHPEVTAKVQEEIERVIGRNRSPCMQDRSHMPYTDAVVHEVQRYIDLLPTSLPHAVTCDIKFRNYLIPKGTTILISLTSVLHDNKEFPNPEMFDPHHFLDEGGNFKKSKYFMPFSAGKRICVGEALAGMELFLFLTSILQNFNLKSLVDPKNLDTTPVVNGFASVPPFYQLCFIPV
Sequence of CYP2C19 (P33261 whole entry): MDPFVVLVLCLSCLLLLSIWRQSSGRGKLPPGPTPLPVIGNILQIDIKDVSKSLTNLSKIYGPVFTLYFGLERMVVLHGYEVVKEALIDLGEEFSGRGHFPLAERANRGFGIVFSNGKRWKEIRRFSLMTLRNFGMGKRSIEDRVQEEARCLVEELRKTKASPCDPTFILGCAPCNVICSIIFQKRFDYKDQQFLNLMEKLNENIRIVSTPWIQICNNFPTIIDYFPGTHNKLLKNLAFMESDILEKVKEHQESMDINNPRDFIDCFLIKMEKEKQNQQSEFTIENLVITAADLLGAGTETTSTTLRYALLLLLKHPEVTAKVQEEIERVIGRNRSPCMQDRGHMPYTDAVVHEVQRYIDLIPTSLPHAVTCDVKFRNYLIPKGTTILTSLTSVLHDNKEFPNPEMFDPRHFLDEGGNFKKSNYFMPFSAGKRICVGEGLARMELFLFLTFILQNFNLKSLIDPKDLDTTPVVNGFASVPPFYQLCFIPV

CN1CCN(CCOc2ccc(/C(=C(/CCCO)c3ccccc3)c3ccc(O)cc3)cc2)CC1 [Compound 6b]
Functional Assay at 10 μM (% of control), Cpds (ERRγ): 7.97 % of control | Functional Assay, Cpds/Ref 5182 (ERRγ): 2.59

OCCC/C(=C(\c1ccc(O)cc1)c1ccc(OCCN2CCOCC2)cc1)c1ccccc1 [Compound 6c]
Functional Assay at 10 μM (% of control), Cpds (ERRγ): 4.64 % of control | Functional Assay, Cpds/Ref 5182 (ERRγ): 1.51 | MS(Microsomal Stability) (%) rat [1]: 45.2% | MS(Microsomal Stability) (%) human [2]: 128.0%

CN1C[C@@H]1CCCOc1ccc(/C(=C(/CCCO)c2ccccc2)c2ccc(Br)cc2)cc1 (stereo partly drawn) [Compound 13c]
Functional Assay at 10 μM (% of control), Cpds (ERRγ): 10.58 % of control | Functional Assay, Cpds/Ref 5182 (ERRγ): 3.36

CN1CCCC1CCOc1ccc(/C(=C(/CCCO)c2ccccc2)c2ccc(Br)cc2)cc1 (stereo not drawn) [Compound 13d]
CYP inhibition (% of control) 2D6 (CYP2D6): >100 % of control | MS(Microsomal Stability) (%) rat [1]: 59.9% | MS(Microsomal Stability) (%) human [2]: 67.3% | Papp at 5 h (in vitro): 0.14 ×10⁻⁶ cm/s | CYP inhibition (% of control) 2C9 (CYP2C9): 97 % of control | CYP inhibition (% of control) 1A2 (CYP1A2): >100 % of control

CC(C)(C)OC(=O)N1CCN(c2ccc(/C(=C(/CCCO)c3ccccc3)c3ccc(O)cc3)cc2)CC1 [Compound 18m]
Functional Assay at 10 μM (% of control), Cpds (ERRγ): 2.97 % of control | Functional Assay, Cpds/Ref 5182 (ERRγ): 1.01

OCCC/C(=C(\c1ccc(O)cc1)c1ccc(N2CCOCC2)cc1)c1ccccc1 [Compound 18o]
Functional Assay at 10 μM (% of control), Cpds (ERRγ): 23.2 % of control | Functional Assay, Cpds/Ref 5182 (ERRγ): 2.33

CC(C)(C)OC(=O)N1CC(c2ccc(/C(=C(/CCCO)c3ccccc3)c3ccc(O)cc3)cc2)C1 [Compound 18t, tert-butyl (E)-3-(4-(5-hydroxy-1-(4-hydroxyphenyl)-2-phenylpent-1-en-1-yl)phenyl)azetidine-1-carboxylate]
Functional Assay at 10 μM (% of control), Cpds (ERRγ): 11.1 % of control | Functional Assay, Cpds/Ref 5182 (ERRγ): 1.11 | CYP inhibition (% of control) 2D6 (CYP2D6): 98 % of control | MS(Microsomal Stability) (%) rat [1]: 80.5% | CYP inhibition (% of control) 2C19 (CYP2C19): 93 % of control | MS(Microsomal Stability) (%) human [2]: 66.9% | CYP inhibition (% of control) 2C9 (CYP2C9): 83 % of control | CYP inhibition (% of control) 1A2 (CYP1A2): 100 % of control

CN(C)CCn1cc(-c2ccc(/C(=C(/CCCO)c3ccccc3)c3ccc(O)cc3)cc2)nn1 [Compound 18u]
Functional Assay at 10 μM (% of control), Cpds (ERRγ): 5.33 % of control | Functional Assay, Cpds/Ref 5182 (ERRγ): 5.61

OCCC/C(=C(\c1ccc(Br)cc1)c1ccc(N2CCNCC2)cc1)c1ccccc1 [Compound 20a, (E)-5-(4-bromophenyl)-4-phenyl-5-(4-(piperazin-1-yl)phenyl)pent-4-en-1-ol]
Functional Assay at 10 μM (% of control), Cpds (ERRγ): 3.15 % of control | MS(Microsomal Stability) (%) rat [1]: 84.7% | MS(Microsomal Stability) (%) human [2]: 65.1% | CYP inhibition (% of control) 2C9 (CYP2C9): 76 % of control | CYP inhibition (% of control) 3A4 (CYP3A4): 55 % of control | CYP inhibition (% of control) 1A2 (CYP1A2): 85 % of control

OCCC/C(=C(\c1ccc(O)cc1)c1ccc(N2CCNCC2)cc1)c1ccccc1 [Compound 20c]
Functional Assay at 10 μM (% of control), Cpds (ERRγ): 2.72 % of control | Functional Assay, Cpds/Ref 5182 (ERRγ): 0.93 | MS(Microsomal Stability) (%) rat [1]: 53.7% | MS(Microsomal Stability) (%) human [2]: 55.8%

OCCC/C(=C(\c1ccc(O)cc1)c1ccc(C2CNC2)cc1)c1ccccc1 [Compound 20e]
MS(Microsomal Stability) (%) rat [1]: 82.1% | AUCINF (in vivo): 0.34 μMh | AUCall (in vivo): 0.28 μMh | Vss (in vivo): 52.8 L/kg | t1/2 (in vivo): 4.4 h | MS(Microsomal Stability) (%) human [2]: 78.1%

OCCC/C(=C(\c1ccc(Br)cc1)c1ccc(C2CNC2)cc1)c1ccccc1 [Compound 20f]
MS(Microsomal Stability) (%) rat [1]: 99.5% | MS(Microsomal Stability) (%) human [2]: 83.9% | Permeability Pampa (in vitro): 0.14 10^−6 cm/s

CN1CCC(c2ccc(/C(=C(/CCCO)c3ccccc3)c3cccc(O)c3)cc2)CC1 [Compound 22ac]
CYP inhibition (% of control) 2D6 (CYP2D6): 86.2 % of control | CYP inhibition (% of control) 2C19 (CYP2C19): >100 % of control | CYP inhibition (% of control) 2C9 (CYP2C9): >100 % of control | CYP inhibition (% of control) 3A4 (CYP3A4): 85 % of control | CYP inhibition (% of control) 1A2 (CYP1A2): >100 % of control

Cc1ccc(/C(=C(\CCCO)c2ccccc2)c2ccc(C3CN(C(C)C)C3)cc2)cc1 [Compound 22e]
CYP inhibition (% of control) 2D6 (CYP2D6): 71.8 % of control | CYP inhibition (% of control) 2C19 (CYP2C19): 58.4 % of control | Permeability Pampa (in vitro): 6.16 10^−6 cm/s | CYP inhibition (% of control) 2C9 (CYP2C9): 61.3 % of control | CYP inhibition (% of control) 3A4 (CYP3A4): 58.2 % of control | CYP inhibition (% of control) 1A2 (CYP1A2): 94.9 % of control

CC(C)N1CCN(c2ccc(/C(=C(/CCCO)c3ccccc3)c3ccc(OS(C)(=O)=O)cc3)cc2)CC1 [Compound 28a, (E)-4-(5-hydroxy-1-(4-(4-isopropylpiperazin-1-yl)phenyl)-2-phenylpent-1-en-1-yl)phenyl methanesulfonate]
Functional Assay at 10 μM (% of control), Cpds (ERRγ): 1.14 % of control | Functional Assay, Cpds/Ref 5182 (ERRγ): 1.20

CC(C)N1CCN(c2ccc(/C(=C(/CCCO)c3ccccc3)c3ccc(OS(=O)(=O)C(F)(F)F)cc3)cc2)CC1 [Compound 28d]
Functional Assay at 10 μM (% of control), Cpds (ERRγ): 1.69 % of control | Functional Assay, Cpds/Ref 5182 (ERRγ): 1.78

CN1CCN(c2ccc(/C(=C(/CCCO)c3ccccc3)c3ccc(OC(=O)C(C)(C)C)cc3)cc2)CC1 [Compound 28e]
Functional Assay at 10 μM (% of control), Cpds (ERRγ): 4.76 % of control | Functional Assay, Cpds/Ref 5182 (ERRγ): 1.16 | MS(Microsomal Stability) (%) rat [1]: 59.6% | MS(Microsomal Stability) (%) human [2]: 56.4%

CN1CCN(c2ccc(/C(=C(/CCCOC(=O)C(C)(C)C)c3ccccc3)c3ccc(O)cc3)cc2)CC1 [Compound 28f]
Functional Assay at 10 μM (% of control), Cpds (ERRγ): 4 % of control | Functional Assay, Cpds/Ref 5182 (ERRγ): 0.98

CN1CCN(c2ccc(/C(=C(/CCCOC(=O)C(C)(C)C)c3ccccc3)c3ccc(OC(=O)C(C)(C)C)cc3)cc2)CC1 [Compound 28g]
Functional Assay at 10 μM (% of control), Cpds (ERRγ): 5.1 % of control | Functional Assay, Cpds/Ref 5182 (ERRγ): 1.25

CN1CCN(Cc2ccc(/C(=C(/CCCO)c3ccccc3)c3ccc(O)cc3)cc2)CC1 [Compound 30a, (E)-4-(5-hydroxy-1-(4-((4-methylpiperazin-1-yl)methyl)phenyl)-2-phenylpent-1-en-1-yl)phenol]
Functional Assay at 10 μM (% of control), Cpds (ERRγ): 2.94 % of control | Functional Assay, Cpds/Ref 5182 (ERRγ): 3.09

OCCC/C(=C(\c1ccc(O)cc1)c1ccc(OCCN2C[C@H]3CNC[C@H]3C2)cc1)c1ccccc1 [Compound 40, 4-((Z)-1-(4-(2-((3 aR,6aS)-hexahydropyrrolo[3,4-c]pyrrol-2(1H)-yl)ethoxy)phenyl)-5-hydroxy-2-phenylpent-1-en-1-yl)phenol]
Functional Assay at 10 μM (% of control), Cpds (ERRγ): 2.8 % of control | Functional Assay, Cpds/Ref 5182 (ERRγ): 0.96 | MS(Microsomal Stability) (%) rat [1]: 72.0% | MS(Microsomal Stability) (%) human [2]: 64.7%

CN1CCN(C[Si](C)(C)c2ccc(/C(=C(/CCCO)c3ccccc3)c3ccc(O)cc3)cc2)CC1 [Compound 42a, (Z)-4-(1-(4-(dimethyl((4-methylpiperazin-1-yl)methyl)silyl)phenyl)-5-hydroxy-2-phenylpent-1-en-1-yl)phenol]
Functional Assay at 10 μM (% of control), Cpds (ERRγ): 4.37 % of control | Functional Assay, Cpds/Ref 5182 (ERRγ): 1.49

C[Si](C)(CN1CCCCC1)c1ccc(/C(=C(/CCCO)c2ccccc2)c2ccc(O)cc2)cc1 [Compound 42b]
Functional Assay at 10 μM (% of control), Cpds (ERRγ): 11.6 % of control | Functional Assay, Cpds/Ref 5182 (ERRγ): 1.16 | Papp at 5 h (in vitro): 0.1 ×10⁻⁶ cm/s

C[Si](C)(CN1CCCC1)c1ccc(/C(=C(/CCCO)c2ccccc2)c2ccc(O)cc2)cc1 [Compound 42c]
Functional Assay at 10 μM (% of control), Cpds (ERRγ): 2.6 % of control | Functional Assay, Cpds/Ref 5182 (ERRγ): 0.89

C[Si](C)(CC1CCNCC1)c1ccc(/C(=C(/CCCO)c2ccccc2)c2ccc(O)cc2)cc1 [Compound 42d]
Functional Assay at 10 μM (% of control), Cpds (ERRγ): 11.7 % of control | Functional Assay, Cpds/Ref 5182 (ERRγ): 3.99

C[Si](C)(CN1C[C@H]2CNC[C@H]2C1)c1ccc(/C(=C(/CCCO)c2ccccc2)c2ccc(O)cc2)cc1 [Compound 42e]
Functional Assay at 10 μM (% of control), Cpds (ERRγ): 26.04 % of control | Functional Assay, Cpds/Ref 5182 (ERRγ): 6.37

O=C(CN1CCCCC1)Nc1ccc(/C(=C(/CCCO)c2ccccc2)c2ccc(O)cc2)cc1 [Compound 44, (E)-N-(4-(5-hydroxy-1-(4-hydroxyphenyl)-2-phenylpent-1-en-1-yl)phenyl)-2-(piperidin-1-yl)acetamide]
Functional Assay at 10 μM (% of control), Cpds (ERRγ): 12.94 % of control | Functional Assay, Cpds/Ref 5182 (ERRγ): 3.16

OCCC/C(=C(\c1ccc(O)cc1)c1ccc(NCCN2CCCCC2)cc1)c1ccccc1 [Compound 45, (E)-4-(5-hydroxy-2-phenyl-1-(4-((2-(piperidin-1-yl)ethyl)amino)phenyl)pent-1-en-1-yl)phenol]
Functional Assay at 10 μM (% of control), Cpds (ERRγ): 1.58 % of control | Functional Assay, Cpds/Ref 5182 (ERRγ): 1.55

C[C@@]12CNC[C@]1(C)CN(CC(=O)Nc1ccc(/C(=C(/CCCO)c3ccccc3)c3ccc(O)cc3)cc1)C2 [Compound 46, 2-((3aR,6aS)-3a,6a-dimethylhexahydropyrrolo[3,4-c]pyrrol-2(1H)-yl)-N-(4-((E)-5-hydroxy-1-(4-hydroxyphenyl)-2-phenylpent-1-en-1-yl)phenyl)acetamide]
Functional Assay at 10 μM (% of control), Cpds (ERRγ): 78.46 % of control | Functional Assay, Cpds/Ref 5182 (ERRγ): 24.91
